Where “and” joins values, the source holds several entries; their conditions need not be identical. Identical values can stand only once.
Key:
Assay type in all cases: cell-based
[1] = test system: total ATPase in Caco-2 cells; assay: Total ATPase activity, malachite green colorimetric; details: Caco-2, IC50 dose, 24 h; 0.1% DMSO control normalized to 100%
Description: (§1) The total activity of ATPase and calcium-independent ATPase activity was quantified colorimetrically as described by our previous protocol. […] The inorganic phosphate (Pi) liberated after the hydrolysis of ATP by ATPase enzymes was complexed into a colored product in one step after the addition of a mixed reagent containing malachite green, ammonium molybdate, and polyvinyl alcohol (2:1:1). The intensity of absorbance at 630 nm was measured using the BioTek 800 TS absorbance plate reader (USA) and was directly proportional to the quantity of liberated Pi. In order to eliminate any color due to the non-enzymatic hydrolysis of ATP, control reactions were made using only ATP in the reaction buffer, and the absorbance intensity was then subtracted from the readings of the samples and standards.

Caco-2 cancer cells [2] = assay: Apoptosis assay Annexin V/PI flow cytometry; details: Caco-2, IC50 dose, 24 h, AV/PI
Description: The standard protocol used in HSBR was performed. […] Cells were rinsed with 1 mL of binding buffer; the cells were again suspended in phosphate-buffered saline (PBS) (Lonza). 100 µL of cell suspension was incubated with 1 µL of FITC-labeled Annexin-V and 5 µL of PI for 15 min at 4 °C in the dark. The suspension was then mixed with 400 µL of ice-cold binding buffer, and each sample's apoptotic cells were analyzed using a Cytoflex flow cytometer (Beckman Coulter, USA), and CytExpert software (version 2.4.0.28) was employed for data analysis.

HepG-2 = assay: MTT anti-proliferative assay; details: Homo sapiens, HepG2; HepG-2, MTT, 24 h, mean ± SEM
Description: (§2) The antiproliferation and cytotoxicity were assessed using 3-(4,5-dimethylthiazol-2-yl)−2,5-diphenyltetrazolium bromide (MTT, Serva) colorimetric assay. All tested cancer cell lines were seeded at a density of 20,000 cells per well in 96-well plates and allowed to adhere overnight. The attached cells were treated with five serial dilutions (100, 50, 5, 0.5, and 0.1 μM) in triplicate. These concentrations were prepared by diluting the stock solutions with serum-free culture media. The negative control cells were those treated with 0.1% DMSO solvent alone. The treated cells were handled in reduced light and maintained under standard culture growth conditions for 24 h. After the incubation period, MTT powder was prepared as a stock solution (5 mg/mL), and 20 μL of the MTT working reagent (final concentration 0.5 mg/mL) was added to each well. This was followed by incubation with MTT reagent for 4 h in a humidified atmosphere (37 °C, 5% CO2) with subsequent addition of 150 μL of DMSO solubilizing solvent and incubation for 20 min. The absorbance of solubilized violet formazan crystals was measured at 570 nm with a Biotek 800 TS microplate reader. IC50 was calculated as the concentration of retinoid that produced 50% cell growth inhibition. For cytotoxicity assessment, WI-38 normal human fibroblast cells were used for the calculation of SI, which is the ratio of IC50 retinoid (WI-38)/IC50 retinoid (cancer cell line).

HCT-116 = assay: MTT anti-proliferative assay; details: Homo sapiens; HCT-116, MTT, 24 h, mean ± SEM
Description: as §2

MDA-MB231 = assay: MTT anti-proliferative assay; details: Homo sapiens, MDA-MB-231, 24 h, mean ± SEM
Description: as §2

PC-3 = assay: MTT anti-proliferative assay; details: Homo sapiens; PC-3, MTT, 24 h, mean ± SEM
Description: as §2

MCF-7 = assay: MTT anti-proliferative assay; details: Homo sapiens, MCF7; MCF-7, MTT, 24 h, mean ± SEM
Description: as §2

Caco-2 = assay: MTT anti-proliferative assay; details: Homo sapiens; Caco-2, MTT, 24 h, mean ± SEM
Description: as §2

[3] = test system: calcium-independent ATPases in Caco-2 cells; assay: Calcium-independent ATPase activity, malachite green colorimetric; details: Caco-2, IC50 dose, 24 h; 0.1% DMSO control normalized to 100%
Description: as §1

Caco-2 cancer cells [4] = assay: Cell cycle assay PI staining flow cytometry; details: Caco-2, IC50 dose, 24 h
Description: The standard protocol used in HSBR was performed. […] Cells were concentrated at 1500 xg and suspended in 50 μg/ml propidium iodide (PI) staining solution and 20 µg/ml RNaseA to identify cells with a sub-G1 DNA content. Cytoflex flow cytometer (Beckman Coulter, USA) was used, and CytExpert software (version 2.4.0.28) was employed for data analysis. The gating strategy used to eliminate doublets depends on plotting the population against a 2D contour plot in four quadrants, referred to as Q1(LL), Q2 (LR), Q3 (UL), and Q4 (UR), that illustrates the spread of the Annexin-FITC-H core cell population against PI PE-H.

[5] = test system: WI-38 normal human fibroblast cells; assay: MTT cytotoxicity assay on normal fibroblasts; details: WI-38 normal fibroblast cells, 24 h, mean ± SEM
Description: as §2

[6] = test system: RAR-β gene in Caco-2 cells; assay: Gene expression RT-qPCR; details: Caco-2, IC50 dose, 24 h, relative to 0.1% DMSO, normalized to GAPDH
Description: The gene expression analysis was performed using real-time quantitative PCR (RT-qPCR), as previously documented [38]. After incubation, cells were harvested, and total RNA was extracted using the Favor-PrepTM Blood/Cultured Cell Total RNA Purification Mini kit (Favorgen Biotech Corp., Ping-Tung, Taiwan). The purified RNA was then reverse transcribed into the first-strand cDNA using the Revert Aid First-Strand cDNA Synthesis Kit (Thermo Scientific, Waltham, MA, USA). […] SYBR® Green qPCR Kit (Willowfort, Nottingham, UK). Differential gene expression was performed using the 2ˆ^−ΔΔCT method utilizing GAPDH as a reference gene [39].

[7] = test system: RAR-γ gene in Caco-2 cells; assay: Gene expression RT-qPCR; details: Caco-2, IC50 dose, 24 h, relative to 0.1% DMSO, normalized to GAPDH
Description: (§3) The gene expression analysis was performed using real-time quantitative PCR (RT-qPCR), as previously documented. After incubation, cells were harvested, and total RNA was extracted using the Favor-PrepTM Blood/Cultured Cell Total RNA Purification Mini kit (Favorgen Biotech Corp., Ping-Tung, Taiwan). The purified RNA was then reverse transcribed into the first-strand cDNA using the Revert Aid First-Strand cDNA Synthesis Kit (Thermo Scientific, Waltham, MA, USA). All qPCR reactions were carried out using the […] SYBR® Green qPCR Kit (Willowfort, Nottingham, UK). Differential gene expression was performed using the 2ˆ^−ΔΔCT method utilizing GAPDH as a reference gene.

[8] = test system: CRABPII gene in Caco-2 cells; assay: Gene expression RT-qPCR; details: Caco-2, IC50 dose, 24 h, relative to 0.1% DMSO, normalized to GAPDH
Description: as §3

[9] = test system: Caspase-3 gene in Caco-2 cells; assay: Gene expression RT-qPCR; details: Caco-2, IC50 dose, 24 h, relative to 0.1% DMSO, normalized to GAPDH
Description: as §3

[10] = test system: Cyt-C gene in Caco-2 cells; assay: Gene expression RT-qPCR; details: Caco-2, IC50 dose, 24 h, relative to 0.1% DMSO, normalized to GAPDH
Description: as §3

[11] = test system: CRABPI gene in Caco-2 cells; assay: Gene expression RT-qPCR; details: Caco-2, IC50 dose, 24 h, relative to 0.1% DMSO, normalized to GAPDH
Description: as §3

[12] = test system: RAR-α, RAR-β, RAR-γ proteins in Caco-2 cells; assay: Western blotting of RAR proteins; details: Caco-2, IC50 dose, 24 h, normalized to β-actin
Description: Using the previously outlined protocol, the western blot technique was used to determine the expression of RAR-α (Cat. No. E6Z6 K, cell signaling, USA), RAR-β (Cat. No. PP-H4338-00, R&D systems, USA) and RAR- γ (Cat. No. D3 A4, cell signaling, USA) in Caco-2 cells. […] Following incubation, floating adhered cells were separated and lysed. The Caco-2 cell lysate was immediately collected, subjected to sonication, and centrifuged for 15 min at 12,000 × g. The total soluble protein content was measured colorimetrically using the PierceTM 660 nm Assay (Thermo Scientific, Waltham, MA, USA) after the resultant supernatant was separated. The Gel documentation system (Geldoc-it, UVP, England) was applied for data analysis using Totallab analysis software (Ver.1.0.1) (ww.totallab.com).

[13] = test system: RAR-α gene in Caco-2 cells; assay: Gene expression RT-qPCR; details: Caco-2, IC50 dose, 24 h, relative to 0.1% DMSO, normalized to GAPDH
Description: as §3

SMILES	total ATPase activity [1]	% Early apoptotic cells (LR) (Caco-2 cancer cells [2])	% Late apoptotic cells (UL) (Caco-2 cancer cells [2])	% Necrotic cells (UR) (Caco-2 cancer cells [2])	% Viable cells (LL) (Caco-2 cancer cells [2])	IC50 (HepG-2)	IC50 (HCT-116)	IC50 (MDA-MB231)	IC50 (PC-3)	IC50 (MCF-7)	IC50 (Caco-2)	ca+2-independent ATPase activity [3]	% G0-G1 (Caco-2 cancer cells [4])	% G2M (Caco-2 cancer cells [4])	% S (Caco-2 cancer cells [4])	% SubG0-G1 (Caco-2 cancer cells [4])	IC50 [5]	RAR-γ gene expression fold change [7]	CRABPII gene expression fold change [8]	caspase-3 gene expression fold change [9]	further results
CC1=C(/C=C/C(C)=C/C=C/C(C)=C/C(=O)O)C(C)(C)CCC1 [ATRA, all-trans-retinoic acid, reference compound]	42.2%	1.20 ± 0.1%	0.03%	98.74% and 98.74 ± 8.7 %	0.02%	16 ± 1.3 µM	38.8 ± 0.9 µM	10.4 ± 0.2 µM	2.21 ± 0.1 µM	4.93 ± 0.4 µM	11.4 ± 0.3 µM	39.4%	17.37 ± 6.1%	3.05 ± 0.7%	5.39 ± 1.4%	74.63 ± 5.8 %	46.9 ± 2.8 µM	4.1 ± 0.2 fold	no effect	1.6 ± 0.1 fold	RAR-β gene expression fold change [6]: 35.3 ± 1.6 fold; Cyt-C gene expression fold change [10]: 7.7 ± 0.3 fold; CRABPI gene expression fold change [11]: 1.2 fold
O=C(O)c1ccc2cc(-c3ccc4c(c3)CCCO4)ccc2c1 [Compound 4b, 6-(chroman-6-yl)−2-naphthoic acid]	34.6%	61.41% and 61.41 ± 5.3 %	0.09%	38.12 ± 2.8 %	0.37%	59.5 ± 3.5 µM	36.9 ± 2.4 µM	2.28 ± 0.2 µM	2.71 ± 0.2 µM	53.1 ± 5.4 µM	15 ± 0.4 µM	36.1%	17.69 ± 3.2%	1.76 ± 0.1%	4.16 ± 1.5%	76.81% and 76.81 ± 6.7 %	33.5 ± 3.4 µM	4.3 ± 0.2 fold	2.0 ± 0.1 fold	2.3 ± 0.1 fold	RAR protein expression (western blot) [12]: overexpression of all RAR subtypes; RAR-α gene expression fold change [13]: 2.9 ± 0.1 fold; Cyt-C gene expression fold change [10]: 1.7 ± 0.1 fold; CRABPI gene expression fold change [11]: 53.5 ± 2.4 fold
